Assay results from patent publication US20110212933A1, “Antiseptic Compositions for the Treatment of Infections” (priority 2008, published 2011).
Values joined by “and” are separate entries in the source; they are usually repeats but may differ in a detail not shown here. Identical values can stand only once. Like-named read-outs stand apart in the source and are kept apart here.

How the values were obtained:
guinea pigs [1] = settings: Positive Control animals, historical data, cited from earlier work; for Individual Bodyweight Initial: baseline
guinea pigs [2] = settings: 0.4 mL, historical data, cited from earlier work
guinea pigs [3] = assay: Dermal sensitization test in guinea pigs (Buehler)
P. aeruginosa = tested on: P. aeruginosa
Method: (§1) Phenol Resistance Control: The phenol resistance of the test organisms were determined per the AOAC method.
(§2) Final phenol dilutions were made the day of use from stock phenol within manufacturer's stability specification.

S. aureus = tested on: S. aureus
Method: as §1, §2

S. cholerasuis = tested on: S. cholerasuis
Method: as §1, §2

T. mentagrophytes = tested on: T. mentagrophytes
Method: Phenol Resistance Control: The phenol resistance of Trichophyton mentagrophytes was determined per the AOAC method. Final phenol dilutions were made the day of use from stock phenol within manufacturer's stability specification.

[4] = historical positive naive control animals, 0.04% in acetone
[5] = Dilution 1:90, Exposure Time 5 Minutes
[6] = Dilution 1:90, Exposure Time 10 Minutes
[7] = Dilution 1:90, Exposure Time 15 Minutes
[8] = Dilution 1:60, Exposure Time 5 Minutes
[9] = Dilution 1:60, Exposure Time 10 Minutes
[10] = Dilution 1:70, Exposure Time 5 Minutes
[11] = Dilution 1:70, Exposure Time 10 Minutes

O=[N+]([O-])c1ccc(Cl)c([N+](=O)[O-])c1 [DNCB, 1-Chloro-2,4-Dinitrobenzene]
Individual Bodyweight Initial (guinea pigs [1]; female guinea pigs): 393 g and 404 g and 415 g and 411 g and 408 g and 428 g and 372 g
Individual Bodyweight Initial (guinea pigs [1]; male guinea pigs): 406 g (2×) and 379 g and 413 g and 423 g and 408 g and 386 g and 407 g
Individual Bodyweight Day After Challenge (guinea pigs [1]; female guinea pigs): 568 g and 660 g and 581 g and 536 g and 591 g and 544 g and 609 g
Individual Bodyweight Day After Challenge (guinea pigs [1]; male guinea pigs): 579 g and 544 g and 600 g and 618 g and 668 g and 551 g and 639 g and 599 g
Preliminary Irritation Testing Score (guinea pigs [2]; Concentration 0.02% w/w in acetone): 0
Preliminary Irritation Testing Score (guinea pigs [2]; Concentration 0.03% w/w in acetone): 0 and 0.5
Preliminary Irritation Testing Score (guinea pigs [2]; Concentration 0.04% w/w in acetone): 0 and 0.5
erythema score, induction phase (guinea pigs [3]; historical positive control animals, 0.08% in 80% aqueous ethanol): 0.5-3
sites with very faint erythema (0.5) 24 hours after challenge (guinea pigs [3]; [4]): two
time for irritation to clear from affected sites (guinea pigs [3]; [4]): ≤ 48 h

Oc1ccccc1 [Phenol, phenol]
Phenol Resistance, growth in subculture (P. aeruginosa; Dilution 1:80, Exposure Time 5 Minutes): 0
Phenol Resistance, growth in subculture (P. aeruginosa; Dilution 1:80, Exposure Time 10 Minutes): 0
Phenol Resistance, growth in subculture (P. aeruginosa; Dilution 1:80, Exposure Time 15 Minutes): 0
Phenol Resistance, growth in subculture (P. aeruginosa; [5]): +
Phenol Resistance, growth in subculture (P. aeruginosa; [6]): +
Phenol Resistance, growth in subculture (P. aeruginosa; [7]): +
Phenol Resistance, growth in subculture (S. aureus; [8]): +
Phenol Resistance, growth in subculture (S. aureus; [9]): +
Phenol Resistance, growth in subculture (S. aureus; Dilution 1:60, Exposure Time 15 Minutes): 0
Phenol Resistance, growth in subculture (S. aureus; [10]): +
Phenol Resistance, growth in subculture (S. aureus; [11]): +
Phenol Resistance, growth in subculture (S. aureus; Dilution 1:70, Exposure Time 15 Minutes): +
Phenol Resistance, growth in subculture (S. cholerasuis; [5]): +
Phenol Resistance, growth in subculture (S. cholerasuis; [6]): 0
Phenol Resistance, growth in subculture (S. cholerasuis; [7]): 0
Phenol Resistance, growth in subculture (S. cholerasuis; Dilution 1:100, Exposure Time 5 Minutes): +
Phenol Resistance, growth in subculture (S. cholerasuis; Dilution 1:100, Exposure Time 10 Minutes): +
Phenol Resistance, growth in subculture (S. cholerasuis; Dilution 1:100, Exposure Time 15 Minutes): 0
Phenol Resistance, growth in subculture (T. mentagrophytes; [8]): 0
Phenol Resistance, growth in subculture (T. mentagrophytes; [9]): 0
Phenol Resistance, growth in subculture (T. mentagrophytes; [10]): +
Phenol Resistance, growth in subculture (T. mentagrophytes; [11]): +
